In patent US11147272B2, “Pyridone compounds and agricultural and horticultural fungicides comprising the same as active ingredients” (MITSUI CHEMICALS AGRO, INC., priority 2017, dated 2021):

Legend:
Magnaporthe grisea = experiment: whole plant or invertebrate; type: in vivo; settings: 250 ppm drug solution sprayed on test plant
Alternaia brassicicola = experiment: Test Example C: Alternaria sooty spot on cabbage; type: in vivo; settings: 250 ppm drug solution sprayed on test plant
From the text: Seeds of a test plant (cabbage variety: Shikidori) were planted and cultivated until the cotyledons extended.
<Control Value> Control value=100{1−(n/3)}

Puccinia recondita = experiment: Test Example E: Brown rust on wheat; type: in vivo; settings: 250 ppm drug solution sprayed on test plant
Phytophthora infestans = experiment: whole plant or invertebrate; type: in vivo; settings: 250 ppm drug solution sprayed on test plant
Botrytis cinerea = experiment: Test Example B: Gray mold on tomato; settings: 250 ppm drug solution sprayed on test plant
Plasmopara viticola = experiment: Test Example G: Downy mildew on vine; settings: 250 ppm drug solution sprayed (2.5 ml/pot), grape Neomuscat, 7 to 10 days after inoculation
[1] = system: Colletotrichum orbiculare; experiment: Test Example H: Anthracnose on cucumber; settings: 250 ppm drug solution sprayed (2.5 ml/pot), cucumber Sagami Hanjiro, 6 to 10 days after inoculation
[2] = system: Blumeria graminis f. sp. hordei; experiment: Test Example D: Powdery mildew on barley; settings: 250 ppm drug solution sprayed on test plant

CCn1c(-c2c(F)cc(OC)cc2F)c(C(OC)C(C)C)cc(Br)c1=O (centres unmarked) [compound 503]
L (50% or less control value): Test F control value (Phytophthora infestans)
H (more than 50% control value): Test A control value (Magnaporthe grisea) | Test C control value (Alternaia brassicicola) | Test E control value (Puccinia recondita) | Test B control value (Botrytis cinerea) | Test G control value (Plasmopara viticola) | Test H control value [1] | Test D control value [2]

CCC(OC)c1cc(Br)c(=O)n(CC)c1-c1c(F)cc(F)cc1F (centres unmarked) [compound 504]
L (50% or less control value): Test F control value (Phytophthora infestans)
H (more than 50% control value): Test A control value (Magnaporthe grisea) | Test C control value (Alternaia brassicicola) | Test E control value (Puccinia recondita) | Test B control value (Botrytis cinerea) | Test G control value (Plasmopara viticola) | Test H control value [1] | Test D control value [2]

CCC(C)(O)c1cc(Cl)c(=O)n(C)c1-c1c(F)cc(F)cc1F (centres unmarked) [compound 505]
H (more than 50% control value): Test A control value (Magnaporthe grisea) | Test C control value (Alternaia brassicicola) | Test E control value (Puccinia recondita) | Test B control value (Botrytis cinerea) | Test G control value (Plasmopara viticola) | Test H control value [1] | Test D control value [2]
L (50% or less control value): Test F control value (Phytophthora infestans)

CCC(OC)c1cc(Cl)c(=O)n(C)c1-c1c(F)cc(OC)cc1F (centres unmarked) [compound 506]
H (more than 50% control value): Test A control value (Magnaporthe grisea) | Test C control value (Alternaia brassicicola) | Test E control value (Puccinia recondita) | Test B control value (Botrytis cinerea) | Test G control value (Plasmopara viticola) | Test H control value [1] | Test D control value [2]
L (50% or less control value): Test F control value (Phytophthora infestans)

CCC(OC)c1cc(Br)c(=O)n(CC)c1-c1c(F)cc(OC)cc1F (centres unmarked) [compound 507]
L (50% or less control value): Test F control value (Phytophthora infestans)
H (more than 50% control value): Test A control value (Magnaporthe grisea) | Test C control value (Alternaia brassicicola) | Test E control value (Puccinia recondita) | Test B control value (Botrytis cinerea) | Test G control value (Plasmopara viticola) | Test H control value [1] | Test D control value [2]

CCC(C)(OC)c1cc(Cl)c(=O)n(C)c1-c1c(F)cc(F)cc1F (centres unmarked) [compound 508]
L (50% or less control value): Test F control value (Phytophthora infestans)
H (more than 50% control value): Test A control value (Magnaporthe grisea) | Test C control value (Alternaia brassicicola) | Test E control value (Puccinia recondita) | Test B control value (Botrytis cinerea) | Test G control value (Plasmopara viticola) | Test H control value [1] | Test D control value [2]

CCOC(C)(CC)c1cc(Cl)c(=O)n(C)c1-c1c(F)cc(F)cc1F (centres unmarked) [compound 509]
L (50% or less control value): Test C control value (Alternaia brassicicola) | Test F control value (Phytophthora infestans) | Test B control value (Botrytis cinerea)
H (more than 50% control value): Test A control value (Magnaporthe grisea) | Test E control value (Puccinia recondita) | Test G control value (Plasmopara viticola) | Test H control value [1] | Test D control value [2]

CCn1c(-c2c(F)cccc2F)c(C=O)ccc1=O [compound 510]
H (more than 50% control value): Test A control value (Magnaporthe grisea)
L (50% or less control value): Test C control value (Alternaia brassicicola) | Test E control value (Puccinia recondita) | Test F control value (Phytophthora infestans) | Test B control value (Botrytis cinerea) | Test G control value (Plasmopara viticola) | Test H control value [1] | Test D control value [2]

CCC(C)(OC)c1cc(Cl)c(=O)n(C)c1-c1c(F)cc(OC)cc1F (centres unmarked) [compound 511]
H (more than 50% control value): Test A control value (Magnaporthe grisea) | Test C control value (Alternaia brassicicola) | Test E control value (Puccinia recondita) | Test B control value (Botrytis cinerea) | Test G control value (Plasmopara viticola) | Test H control value [1]
L (50% or less control value): Test F control value (Phytophthora infestans) | Test D control value [2]

CCC(C)(O)c1cc(Cl)c(=O)n(C)c1-c1c(F)cc(OC)cc1F (centres unmarked) [compound 513]
H (more than 50% control value): Test A control value (Magnaporthe grisea) | Test C control value (Alternaia brassicicola) | Test E control value (Puccinia recondita) | Test B control value (Botrytis cinerea) | Test G control value (Plasmopara viticola) | Test H control value [1] | Test D control value [2]
L (50% or less control value): Test F control value (Phytophthora infestans)

CCn1c(-c2c(F)cc(F)cc2F)c(C(C)O)cc(Cl)c1=O (centres unmarked) [compound 514]
L (50% or less control value): Test A control value (Magnaporthe grisea) | Test F control value (Phytophthora infestans)
H (more than 50% control value): Test C control value (Alternaia brassicicola) | Test E control value (Puccinia recondita) | Test B control value (Botrytis cinerea) | Test G control value (Plasmopara viticola) | Test H control value [1] | Test D control value [2]

CCn1c(-c2c(F)cccc2F)c(C(O)C(C)C)cc(Br)c1=O (centres unmarked) [compound 520]
H (more than 50% control value): Test A control value (Magnaporthe grisea) | Test C control value (Alternaia brassicicola) | Test E control value (Puccinia recondita) | Test B control value (Botrytis cinerea) | Test G control value (Plasmopara viticola) | Test H control value [1] | Test D control value [2]
L (50% or less control value): Test F control value (Phytophthora infestans)

CCn1c(-c2c(F)cccc2F)c(C(C)(O)C(C)C)ccc1=O (centres unmarked) [compound 521]
L (50% or less control value): Test A control value (Magnaporthe grisea) | Test F control value (Phytophthora infestans) | Test H control value [1]
H (more than 50% control value): Test C control value (Alternaia brassicicola) | Test E control value (Puccinia recondita) | Test B control value (Botrytis cinerea) | Test G control value (Plasmopara viticola) | Test D control value [2]
